From PubChem BioAssay AID2060891 (Molecular Pharmacology Branch, DTP, NCI, 2025)

System: K98450-129-R-PDC complex spheroid growth, percent test/control
Assay: Anticancer human tumor K98450-129-R-PDC patient-derived colon adenocarcinoma cell line growth inhibition [RAS]
Conditions: for IC50: curve of first compound; for viability, T/C: stronger effect = lower value
Excerpt: RAS pathway inhibitors in Combinations in Complex Spheroids
A high-throughput screen of multi-cell type tumor spheroids was designed to identify active combinations of RAS pathway inhibitors and targeted small molecules. Complex spheroids include a stromal component modeled by human endothelial cells (HUVEC) and fibroblasts modeled by human mesenchymal stem cells (MSCs). The concentration ranges selected for each drug and investigational agent were based upon clinically achievable concentrations if the clinical Cmax of the agent was known.
Compounds. The drugs and investigational agents: abemaciclib (NSC768073), cobimetinib (NSC768068), divarasib (GDC6063, NSC841802), docetaxel (NSC628503), GDC-1971 (RLY-1971, NSC841576), gemcitabine (NSC613327), inavolisib (NSC800729), ipatasertib (NSC767898), KB-0742 (NSC834161), MRTX-1133 (NSC836407), osimertinib (NSC779217), RMC-4630 (NSC839698), RMC-6236 (NSC851965), RMC-6291 (NSC852671), Ro-3306 (NSC812927), sapanisertib (NSC764658), SN-38 (NSC673596), staurosporine (NSC755774), SY5609 (NSC837396), and tovorafenib (DAY101, NSC766906), were obtained from the National Cancer Institute (NCI) Developmental Therapeutics Program Chemical Repository. The FDA-approved anticancer drug set is available from the NCI Developmental Therapeutics Program. […] The stock solutions were prepared in dimethyl sulfoxide (DMSO, Sigma-Aldrich, St. Louis, MO, cat. D2650) at 800-fold the tested concentration and stored at -70 degrees C prior to their use. All drugs and investigational agents were tested over a range starting from a high concentration at or near the clinical Cmax and decreasing in half-log increments. If the clinical Cmax for an agent had not been determined, the highest concentration tested was 10 microM.
Cell Culture. All cells were maintained in an incubator at 37 degrees C and 5% CO2 with 95% humidity. The PDC lines were cultured according to standard operating procedures established by the NCI PDMR. All PDCs were thawed and cultured in Matrigel-coated flasks prepared with a working solution of 1X Ham's F-12 nutrient mix, without supplementation (Invitrogen, Waltham, MA, cat. 11765054), 100 U/mL penicillin-streptomycin (Invitrogen, cat. 15140122), and 2.5% Matrigel (Corning Inc., Corning, NY, cat. 354248) for the first three passages. The 362531-283-R-J2-PDC and 782815-120-R-J1-PDC lines were cultured in 6C/Colon 1B media, which includes advanced DMEM/F-12 (Thermo Fisher Scientific, cat. 12634028), 10 mM HEPES (Thermo Fisher Scientific, cat. 15630080), 1X GlutaMAX supplement (Thermo Fisher Scientific, cat. 35050061), 0.1 mg/mL primocin (InvivoGen, San Diego, CA, cat. ant-pm-2), 10% defined fetal bovine serum, heat inactivated (HyClone Laboratories Inc., Logan, UT, cat. SH30070.03HI), 50% L-WRN conditioned media (ATCC, cat. CRL-3276), 1.25 mM N-Acetyl-L-cysteine (Sigma-Aldrich, cat. A9165), 10 mM nicotinamide (Sigma-Aldrich, cat. N0636), 1X B-27 supplement (Thermo Fisher Scientific, cat. 17504044), 1X N-2 supplement (Thermo Fisher Scientific, cat. 17502048), 50 ng/mL human EGF (Thermo Fisher Scientific, cat. PHG0311), and 10 microM Y-27632 dihydrochloride (Tocris Bioscience, cat. 1254). The K12877-001-R-J1-PDC line was cultured in 6I media, which includes all 6C/Colon 1B media plus 10 ng/mL human FGF-10 (PeproTech, cat. 100-26), 1 ng/mL human FGF-2 (PeproTech, cat. 100-18B), 1 µM prostaglandin E2 (Tocris Bioscience, cat. 2296), […] hydrocortisone (Sigma-Aldrich, cat. H4001), and […] bovine insulin (Sigma-Aldrich, cat. I6634). The K86415-001-R-J1-PDC line was cultured in 6D media, which includes all 6C/Colon 1B media components minus the L-WRN conditioned media. The 485176-168-R4-J1-PDC was cultured in PANC media, which includes all 6C/Colon 1B media plus 100 ng/mL human FGF-10 (PeproTech, cat. 100-26), 500 nM SB-431542 (Selleckchem, cat. S1067), and 10 nM gastrin (Tocris Bioscience, cat. 3006). […]

[1] = second compound 0.0316 µM, first compound 0.0316 µM
[2] = second compound 0.0316 µM, first compound 0.1 µM
[3] = second compound 0.1 µM, first compound 0.0316 µM
[4] = second compound 0.1 µM, first compound 0.1 µM
[5] = second compound 0.316 µM, first compound 0.0316 µM
[6] = second compound 0.316 µM, first compound 0.1 µM
[7] = second compound 1 µM, first compound 0.0316 µM
[8] = second compound 1 µM, first compound 0.1 µM
[9] = second compound 3.16 µM, first compound 0.0316 µM
[10] = second compound 3.16 µM, first compound 0.1 µM
[11] = second compound 10 µM, first compound 0.0316 µM
[12] = second compound 10 µM, first compound 0.1 µM
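Note: spheroids exposed to agents for seven days before the viability readout.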
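Throughout, for viability, T/C: luminescence used as a proxy for viable cell amount.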

SMILES: CC(C)n1nc(-c2ccc3oc(N)nc3c2)c2c(N)ncnc21 + C#Cc1c(F)ccc2cc(O)cc(-c3ncc4c(N5CC6CCC(C5)N6)nc(OCC56CCCN5CC(F)C6)nc4c3F)c12
- IC50 (second compound 0.0316 µM): > 0.1 µM
- IC50 (second compound 0.1 µM): > 0.1 µM
- IC50 (second compound 0.316 µM): > 0.1 µM
- IC50 (second compound 1 µM): > 0.1 µM
- IC50 (second compound 3.16 µM): > 0.1 µM
- IC50 (second compound 10 µM): > 0.1 µM
- viability, T/C (second compound 0.0316 µM, first compound 0.000316 µM): 110%
- viability, T/C (second compound 0.0316 µM, first compound 0.001 µM): 104%
- viability, T/C (second compound 0.0316 µM, first compound 0.00316 µM): 101%
- viability, T/C (second compound 0.0316 µM, first compound 0.01 µM): 98.4%
- viability, T/C [1]: 86.5%
- viability, T/C [2]: 78.3%
- viability, T/C (second compound 0.1 µM, first compound 0.000316 µM): 114%
- viability, T/C (second compound 0.1 µM, first compound 0.001 µM): 103%
- viability, T/C (second compound 0.1 µM, first compound 0.00316 µM): 102%
- viability, T/C (second compound 0.1 µM, first compound 0.01 µM): 95.9%
- viability, T/C [3]: 89.2%
- viability, T/C [4]: 74.4%
- viability, T/C (second compound 0.316 µM, first compound 0.000316 µM): 109%
- viability, T/C (second compound 0.316 µM, first compound 0.001 µM): 105%
- viability, T/C (second compound 0.316 µM, first compound 0.00316 µM): 104%
- viability, T/C (second compound 0.316 µM, first compound 0.01 µM): 98.8%
- viability, T/C [5]: 93.1%
- viability, T/C [6]: 71.9%
- viability, T/C (second compound 1 µM, first compound 0.000316 µM): 106%
- viability, T/C (second compound 1 µM, first compound 0.001 µM): 107%
- viability, T/C (second compound 1 µM, first compound 0.00316 µM): 95.1%
- viability, T/C (second compound 1 µM, first compound 0.01 µM): 93.8%
- viability, T/C [7]: 82.9%
- viability, T/C [8]: 74.7%
- viability, T/C (second compound 3.16 µM, first compound 0.000316 µM): 95.6%
- viability, T/C (second compound 3.16 µM, first compound 0.001 µM): 94.8%
- viability, T/C (second compound 3.16 µM, first compound 0.00316 µM): 92%
- viability, T/C (second compound 3.16 µM, first compound 0.01 µM): 84.4%
- viability, T/C [9]: 80.1%
- viability, T/C [10]: 66.7%
- viability, T/C (second compound 10 µM, first compound 0.000316 µM): 84.9%
- viability, T/C (second compound 10 µM, first compound 0.001 µM): 82.9%
- viability, T/C (second compound 10 µM, first compound 0.00316 µM): 87.4%
- viability, T/C (second compound 10 µM, first compound 0.01 µM): 77%
- viability, T/C [11]: 69.6%
- viability, T/C [12]: 62.2%

SMILES: C[C@@H](NC(=O)c1ncnc(N)c1Cl)c1ncc(C(=O)Nc2cc(C(F)(F)F)c(Cl)cn2)s1 + C#Cc1c(F)ccc2cc(O)cc(-c3ncc4c(N5CC6CCC(C5)N6)nc(OCC56CCCN5CC(F)C6)nc4c3F)c12
- IC50 (second compound 0.0316 µM): > 10 µM
- IC50 (second compound 0.1 µM): > 10 µM
- IC50 (second compound 0.316 µM): > 10 µM
- IC50 (second compound 1 µM): > 10 µM
- IC50 (second compound 3.16 µM): > 10 µM
- IC50 (second compound 10 µM): > 10 µM
- viability, T/C [1]: 114%
- viability, T/C [2]: 117%
- viability, T/C (second compound 0.0316 µM, first compound 0.316 µM): 118%
- viability, T/C (second compound 0.0316 µM, first compound 1 µM): 126%
- viability, T/C (second compound 0.0316 µM, first compound 3.16 µM): 129%
- viability, T/C (second compound 0.0316 µM, first compound 10 µM): 103%
- viability, T/C [3]: 115%
- viability, T/C [4]: 126%
- viability, T/C (second compound 0.1 µM, first compound 0.316 µM): 130%
- viability, T/C (second compound 0.1 µM, first compound 1 µM): 127%
- viability, T/C (second compound 0.1 µM, first compound 3.16 µM): 128%
- viability, T/C (second compound 0.1 µM, first compound 10 µM): 106%
- viability, T/C [5]: 112%
- viability, T/C [6]: 121%
- viability, T/C (second compound 0.316 µM, first compound 0.316 µM): 120%
- viability, T/C (second compound 0.316 µM, first compound 1 µM): 127%
- viability, T/C (second compound 0.316 µM, first compound 3.16 µM): 130%
- viability, T/C (second compound 0.316 µM, first compound 10 µM): 106%
- viability, T/C [7]: 114%
- viability, T/C [8]: 115%
- viability, T/C (second compound 1 µM, first compound 0.316 µM): 122%
- viability, T/C (second compound 1 µM, first compound 1 µM): 112%
- viability, T/C (second compound 1 µM, first compound 3.16 µM): 126%
- viability, T/C (second compound 1 µM, first compound 10 µM): 102%
- viability, T/C [9]: 100%
- viability, T/C [10]: 108%
- viability, T/C (second compound 3.16 µM, first compound 0.316 µM): 115%
- viability, T/C (second compound 3.16 µM, first compound 1 µM): 115%
- viability, T/C (second compound 3.16 µM, first compound 3.16 µM): 114%
- viability, T/C (second compound 3.16 µM, first compound 10 µM): 92.7%
- viability, T/C [11]: 95.8%
- viability, T/C [12]: 108%
- viability, T/C (second compound 10 µM, first compound 0.316 µM): 114%
- viability, T/C (second compound 10 µM, first compound 1 µM): 100%
- viability, T/C (second compound 10 µM, first compound 3.16 µM): 111%
- viability, T/C (second compound 10 µM, first compound 10 µM): 86.2%
